Measured values as given in patent publication US9475824B2, “Fused pyrimidines as inhibitors of p97 complex” (Cleave Biosciences, Inc., priority 2012, dated 2016).

Key:
in vitro = conditions: human, Caco-2, pH 7.4
p97 = p97 (Homo sapiens, UniProt P55072); assay: P97 ATPase biochemical assay (ADP Glo); conditions: 20 nM p97, 20 μM ATP, 37° C. 15 minutes
Experimental: The ATPase assay is performed according the following protocol: Purified enzyme (20 nM p97), substrate (20 μM ATP) and a dose titration of compounds are mixed in buffer (50 mM TRIS pH 7.5, 20 mM MgCl2, 0.02% TX-100, 1 mM DTT, 0.2% (v/v) glycerol) and incubated at 37° C. for 15 minutes. The reaction is terminated and the level of product generated is measured using the ADP Glo Assay Kit (Promega, Madison Wis.). Plotting product generated versus compound concentration and using a four-parameter fit model generates an IC50 value for each compounds.
The p97 assay is an initial screening assay used to determine inhibitory activity of the fused pyrimidine compounds of the invention against the p97 complex. As discussed above, inhibition of activity of the p97 proteosome complex can enable apoptosis and cause elimination of neoplastic cells (cancer cells). The method follows that of Christianson in Nat.
Assay Buffer is a mixture of 50 mM TRIS pH 7.5, 20 mM MgCl2, 0.02% TX-100, 1 mM DTT and 0.2% (v/v) Glycerol. […] The identification kit is an ADP glo kit (Promega): stop buffer, detection reagent.
0.5 μL compound serial diluted in DMSO (Final Conc. 10%)
2 μL ATP (Final Conc.=20 uM, diluted in assay buffer)
2.5 μL p97 (Final Conc.=20 nM, diluted in assay buffer)
Incubate at 37 degC for 15 min.
Add 5 μL of stop buffer, incubate at RT for 40 min.
Add 10 μL of detection reagent, incubate at RT for 30 min.
Read luminescence on Envision plate reader.
Plot normalized luminescence data against log-transformed concentration values and fit to a sigmoidal curve to determine IC50 values (done in Collaborative Drug Discovery software).

K48-Ub, A549 cells = assay: A549 K48 cell intensity (immunofluorescence, high content imaging); format: cell-based; conditions: Homo sapiens, 6 hr compound incubation
Experimental: Image-analysis is used to generate quantitative data from these assays that can be fit to a four-parameter sigmoid curve to derive IC50 values. Substrates of the ubiquitin-proteasome system, such as p53, are monitored after tumor cell lines are incubated with compounds for several hours. Accumulation of these proteins indicates an inhibition of proteasome-mediated degradation. Accumulation of lysine-48 chain linkage of poly-ubiquitin is also monitored by immunofluorescence as an indicator of ubiquitin-proteasome system inhibition. Both LC3 and SQSTM1 are mediators of autophagy. The localization and amounts of these proteins are monitored by immunofluorescence and report on the activity and inhibition of autophagy in response to p97 inhibition.
Day 1, Cell Plating to Establish Colonies of Cancer Cells • Cell Plating: • Seed cells ˜16 hrs prior to compound treatment • Plate 25 μL of A549 cells in every well of 384-well plate using multidrop. • Two (2) black plates for IF at 2500 cells/well • Let plate sit at room temp for 10-15 minutes prior to putting in incubator to allow cells to stick in middle of plate. • One (1) white plate for viability at 500 cells/well.

Chain of p97 (P55072 whole entry): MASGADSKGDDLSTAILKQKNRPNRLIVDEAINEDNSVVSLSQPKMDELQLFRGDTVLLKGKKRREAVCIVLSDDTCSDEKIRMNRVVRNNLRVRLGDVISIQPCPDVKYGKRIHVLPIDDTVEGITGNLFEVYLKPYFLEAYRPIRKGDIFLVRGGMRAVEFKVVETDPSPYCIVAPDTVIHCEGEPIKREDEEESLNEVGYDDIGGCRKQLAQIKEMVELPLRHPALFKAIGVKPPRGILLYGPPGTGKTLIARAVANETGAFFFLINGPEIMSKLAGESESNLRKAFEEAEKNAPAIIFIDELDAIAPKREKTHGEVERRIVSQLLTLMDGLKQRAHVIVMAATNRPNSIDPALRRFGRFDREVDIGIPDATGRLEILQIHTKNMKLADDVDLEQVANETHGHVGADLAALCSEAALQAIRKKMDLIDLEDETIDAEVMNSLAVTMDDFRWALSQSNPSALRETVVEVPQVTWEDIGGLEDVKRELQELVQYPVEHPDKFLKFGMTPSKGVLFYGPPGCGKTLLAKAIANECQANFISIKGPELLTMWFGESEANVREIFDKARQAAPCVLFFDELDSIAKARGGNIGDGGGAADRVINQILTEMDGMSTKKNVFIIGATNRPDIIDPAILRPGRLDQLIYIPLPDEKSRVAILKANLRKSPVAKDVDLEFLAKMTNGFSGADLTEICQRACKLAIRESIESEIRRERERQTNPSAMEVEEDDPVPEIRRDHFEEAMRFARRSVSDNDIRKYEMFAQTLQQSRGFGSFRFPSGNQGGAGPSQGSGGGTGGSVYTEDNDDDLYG

Row | Compound | Peff A B, Range (Caco-2 cell monolayer; pH 7.4 Caco-2, A to B) | Peff B A, Range (Caco-2 cell monolayer; pH 7.4 Caco-2, B to A) | Papp A→B at 90 min, 100 μM (in vitro) [×10⁻⁶ cm/s] | Papp B→A at 90 min, 100 μM (in vitro) [×10⁻⁶ cm/s] | IC50 (p97) [µM] | IC50 (K48-Ub, A549 cells) [µM]
1 | CC(C)NCC(O)COc1cccc2ccccc12 (centres unmarked) [Propranolol] | 18.50-36.80 ×E−6 cm/sec | 16.30-31.40 ×E−6 cm/sec | 28.5 | 20.9 |  | 
2 | Cc1cc2c(C(=O)O)cccc2n1-c1nc2c(c(NCc3ccccc3)n1)COCC2 [compound 107, 1-[4-(benzylamino)-5H,7H,8H-pyrano[4,3-d]pyrimidin-2-yl]-2-methyl-1H-indole-4-carboxylic acid] |  |  |  |  | < 0.03 | < 10
3 | Cc1cc2c(C(=O)O)cccc2n1-c1nc2c(c(NCc3ccccc3)n1)CCCC2 [compound 108, 1-[4-(benzylamino)-5,6,7,8-tetrahydroquinazolin-2-yl]-2-methyl-1H-indole-4-carboxylic acid] |  |  |  |  | < 0.03 | < 10
4 | Cc1cc2c(S(N)(=O)=O)cccc2n1-c1nc2c(c(NCc3ccccc3)n1)CCCC2 [compound 110, 1-[4-(benzylamino)-5,6,7,8-tetrahydroquinazolin-2-yl]-2-methyl-1H-indole-4-sulfonamide] |  |  |  |  | < 0.1 | < 10
5 | Cc1cc2c(S(C)(=O)=O)cccc2n1-c1nc2c(c(NCc3ccccc3)n1)CCCC2 [compound 111, N-benzyl-2-(4-methanesulfonyl-2-methyl-1H-indol-1-yl)-5,6,7,8-tetrahydroquinazolin-4-amine] |  |  |  |  | < 0.1 | < 10
6 | CCc1cc2c(C(N)=O)cccc2n1-c1nc2c(c(NCc3ccccc3)n1)CCCC2 [compound 112, 1-[4-(benzylamino)-5,6,7,8-tetrahydroquinazolin-2-yl]-2-ethyl-1H-indole-4-carboxamide] |  |  |  |  | < 0.1 | < 10
7 | CCc1cc2c(C(N)=O)cccc2n1-c1nc2c(c(NCc3ccccc3)n1)COCC2 [compound 113, 1-[4-(benzylamino)-5H,7H,8H-pyrano[4,3-d]pyrimidin-2-yl]-2-ethyl-1H-indole-4-carboxamide] |  |  |  |  | < 0.3 | < 10
8 | COc1nc2c(C(N)=O)cccc2n1-c1nc2c(c(NCc3ccccc3)n1)CCCC2 [compound 114, 1-[4-(benzylamino)-5,6,7,8-tetrahydroquinazolin-2-yl]-2-methoxy-1H-1,3-benzodiazole-4-carboxamide] |  |  |  |  | < 0.03 | < 10
9 | Cc1cc2c(S(C)(=O)=O)cccc2n1-c1nc2c(c(NCc3ccccc3)n1)COCC2 [compound 118, N-benzyl-2-(4-methanesulfonyl-2-methyl-1H-indol-1-yl)-5H,7H,8H-pyrano[4,3-d]pyrimidin-4-amine] |  |  |  |  | < 0.3 | < 10
10 | Cc1cc2c(C(N)=O)cccc2n1-c1nc2c(c(NCc3ccc(F)cc3)n1)COCC2 [compound 122, 1-(4-{[(4-fluorophenyl)methyl]amino}-5H,7H,8H-pyrano[4,3-d]pyrimidin-2-yl)-2-methyl-1H-indole-4-carboxamide] |  |  |  |  | < 0.1 | < 10
11 | Cc1cc2c(C(N)=O)cccc2n1-c1nc2c(c(NCc3ccccc3F)n1)COCC2 [compound 123, 1-(4-{[(2-fluorophenyl)methyl]amino}-5H,7H,8H-pyrano[4,3-d]pyrimidin-2-yl)-2-methyl-1H-indole-4-carboxamide] |  |  |  |  | < 0.1 | < 10
12 | Cc1cc2c(CN)cccc2n1-c1nc2c(c(NCc3ccccc3)n1)CCCC2 [compound 124, 2-[4-(aminomethyl)-2-methyl-1H-indol-1-yl]-N-benzyl-5,6,7,8-tetrahydroquinazolin-4-amine] |  |  |  |  | < 0.1 | < 10
13 | CC(C)c1cc2c(C(N)=O)cccc2n1-c1nc2c(c(NCc3ccccc3)n1)CCCC2 [compound 128, 1-[4-(benzylamino)-5,6,7,8-tetrahydroquinazolin-2-yl]-2-(propan-2-yl)-1H-indole-4-carboxamide] |  |  |  |  | < 0.1 | < 10
14 | NC(=O)c1cccc2c1cc(C1CC1)n2-c1nc2c(c(NCc3ccccc3)n1)CCCC2 [compound 130, 1-[4-(benzylamino)-5,6,7,8-tetrahydroquinazolin-2-yl]-2-cyclopropyl-1H-indole-4-carboxamide] |  |  |  |  | < 0.03 | < 10
15 | CNC(=O)c1cccc2c1cc(C)n2-c1nc2c(c(NCc3ccccc3)n1)CCCC2 [compound 132, 1-[4-(benzylamino)-5,6,7,8-tetrahydroquinazolin-2-yl]-N-methyl-2-methyl-1H-indole-4-carboxamide] |  |  |  |  | < 0.03 | < 10
16 | CCNC(=O)c1cccc2c1cc(C)n2-c1nc2c(c(NCc3ccccc3)n1)CCCC2 [compound 134, 1-[4-(benzylamino)-5,6,7,8-tetrahydroquinazolin-2-yl]-N-ethyl-2-methyl-1H-indole-4-carboxamide] |  |  |  |  | < 0.03 | < 10
17 | Cc1cc2c(C(N)=O)cccc2n1-c1nc2c(c(NCc3cccc(F)c3)n1)COCC2 [compound 136, 1-(4-{[(3-fluorophenyl)methyl]amino}-5H,7H,8H-pyrano[4,3-d]pyrimidin-2-yl)-2-methyl-1H-indole-4-carboxamide] |  |  |  |  | < 0.03 | < 10
18 | COCCOc1cc2c(C#N)cccc2n1-c1nc2c(c(NCc3ccccc3)n1)CCCC2 [compound 137, 1-[4-(benzylamino)-5,6,7,8-tetrahydroquinazolin-2-yl]-2-(2-methoxyethoxy)-1H-indole-4-carbonitrile] |  |  |  |  | < 0.03 | < 10
